Data: paper PMC4263425 (Biochemistry, 2014)

What was measured:
[1] = target: HDAC8; conditions: read-out: Ki for HDAC8; cited from earlier work
[2] = target: T1, human HDAC8 (Homo sapiens, UniProt Q9BY41); assay: Temperature-dependent ITC; type: binding; conditions: for temp (K), where ΔG° = ΔH°: interpolated from the ΔCp° plots, TΔS° = 0
T1 sequence (Q9BY41 1-377): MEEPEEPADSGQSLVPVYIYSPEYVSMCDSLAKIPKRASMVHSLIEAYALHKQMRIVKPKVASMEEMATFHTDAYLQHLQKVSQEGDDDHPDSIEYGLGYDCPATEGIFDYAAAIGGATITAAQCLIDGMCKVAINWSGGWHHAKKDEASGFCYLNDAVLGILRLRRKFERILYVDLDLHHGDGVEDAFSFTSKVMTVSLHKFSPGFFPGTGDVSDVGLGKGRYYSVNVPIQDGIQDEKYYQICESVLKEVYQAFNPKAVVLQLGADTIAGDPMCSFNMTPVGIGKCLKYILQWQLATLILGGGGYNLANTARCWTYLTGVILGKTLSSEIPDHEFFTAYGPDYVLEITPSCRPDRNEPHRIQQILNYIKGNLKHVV

[3] = target: T1, human HDAC8; assay: Isothermal titration calorimetry; type: binding
[4] = Tris-HCl buffer (pH 7.5), 25 °C
[5] = difference versus SAHA, Table 1 conditions

temp (K), where ΔG° = ΔH° [2] | stoichiometry [3, 4] | ΔG°obs [3, 4] | SMILES | Ki [1] | also measured
 |  |  | O=C(CCCc1ccccc1)NO [4-PBHA] | 1850 nM | 
 |  |  | Cn1cc(C(=O)c2ccccc2)cc1C=CC(=O)NO [APHA] | 600 nM | 
341 K | 0.9 ± 0.1 | –8.0 ± 0.4 kcal/mol | CC(NC(=O)CCCc1ccc2ccc3cccc4ccc1c2c34)C(=O)NO (stereo not shown) [MH-12/4, N-(1-Hydroxycarbamoyl-ethyl)-4-pyren-1-yl-butyramide] |  | ΔCp° ([2]; 5–25 °C, Tris-HCl buffer, slope of ΔH°obs vs temperature): –0.13 ± 0.02 kcal mol^–1 K^–1; TΔS°obs [3, 4]: 5.3 ± 0.4 kcal/mol; ΔH°obs [3, 4]: –2.72 ± 0.3 kcal/mol; binding enthalpy less favorable than that of SAHA by [3, 5]: 8.2 kcal/mol; binding entropy (TΔS°) more favorable than that of SAHA by [3, 5]: 7.8 kcal/mol
288 K | 0.9 ± 0.1 | –8.4 ± 0.3 kcal/mol | O=C(CCCCCCC(=O)Nc1ccccc1)NO [SAHA, suberoylanilide hydroxamic acid] |  | higher favorable binding enthalpy compared to that of TSA ([3]; Table 1 conditions): 2 kcal/mol; stoichiometry of the enzyme–SAHA complex ([3]; control ITC titration for every batch of enzyme): 0.9–1
 |  |  | O=C(CCCCCCC(=O)Nc1cccnc1)NO [pyroxamide] | 1000 nM | 
